From US20250368625A1, “PIPERAZINES” (Grünenthal GmbH, priority 2024, published 2025) come the findings set out here.

For one assay, the target named is T1, human SSTR4 (Homo sapiens, UniProt P31391).
T1 construct: expressed in transfected cells; host or cells: CHO-K1
T1 sequence (P31391 whole entry): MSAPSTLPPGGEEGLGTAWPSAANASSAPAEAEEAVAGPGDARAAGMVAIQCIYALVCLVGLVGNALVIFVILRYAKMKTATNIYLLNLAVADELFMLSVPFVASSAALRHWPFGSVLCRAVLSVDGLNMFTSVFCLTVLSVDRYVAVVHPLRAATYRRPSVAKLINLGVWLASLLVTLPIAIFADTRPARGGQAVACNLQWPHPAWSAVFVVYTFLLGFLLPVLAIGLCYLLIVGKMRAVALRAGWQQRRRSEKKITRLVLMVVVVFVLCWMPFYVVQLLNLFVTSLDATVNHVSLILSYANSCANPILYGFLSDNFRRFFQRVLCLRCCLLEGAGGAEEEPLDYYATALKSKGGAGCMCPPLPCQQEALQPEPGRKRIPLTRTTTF
The assay is described as follows: hSSTR4 cAMP assay (cAMP accumulation, LANCE Ultra cAMP kit, CHO-K1 human SSTR4 Gi cell line). To be noted: functional agonism, forskolin 10 μM stimulated CHO-K1 human SSTR4 Gi cells, 30 min at 25° C., at least duplicate, averaged; read-out: hSSTR4 EC50. Format: cell-based. As to the method: cAMP accumulation assay using a CHO-K1 human SSTR4 Gi cell line.
Quantification of intracellular cAMP was performed using the LANCE Ultra cAMP assay kit from Revvity according to the manufacturer's instructions. CHO-K1 human SSTR4 Gi cell were either seeded in a density of 3K cells per well into a 384 well plate and incubated at 37° C. and 5% CO2 for 18-20 h or a stock of frozen cells were defrosted and seeded in a density of 5K cells per well without any further cultivation directly prior to the assay in a total volume of 5 μL in stimulation buffer. For pre-cultured cells, medium was replaced with 5 μL stimulation buffer before the assay. Cells were then stimulated with forskolin (final concentration 10 μM) and test compound (SSTR4 agonist) in increasing concentrations in duplicates for 30 min at 25° C. After stimulation, cells were lysed by addition of 10 μL of detection buffer (provided with the kit) and cell lysates were further diluted to ensure final cAMP concentrations fitted well into the dynamic range of the test kit. 10 μL of the diluted lysates were then added to respective wells of an OptiPlate-384 microplate. Thereafter, 5 μL of 4× Eu-cAMP tracer working solution was added, followed by addition of 5 μL of ULight-anti-cAMP working solution. The plate was then incubated for 1 h at 25° C. before reading on a TR-FRET microplate instrument. Data were normalized to cAMP high (forskolin only) and low control (forskolin+100 nM SST14) before fitting to a 4-Paramter logistic function.
All data was generated according to the cAMP assay conditions described above in at least duplicate and results are averaged and rounded to two significant figures.
For orientation: Cyclic AMP is a second messenger, typically raised through Gs and lowered through Gi signalling.
In the case of `Cc1cccn2c(C(C)(C)NC(=O)C3CNCCN3Cc3ncccn3)ncc12` (racemic) [SC-001, rac-N-(2-(8-methylimidazo[1,5-a]pyridin-3-yl)propan-2-yl)-1-(pyrimidin-2-ylmethyl)piperazine-2-carboxamide], the EC50 worked out at 13 nM.
Regarding `Cc1cccn2c(C(C)(C)NC(=O)[C@@H]3CNCCN3C(C)C)ncc12` (racemic) [SC-002, rac-1-isopropyl-N-(2-(8-methylimidazo[1,5-a]pyridin-3-yl)propan-2-yl)piperazine-2-carboxamide], the EC50 is 1.1 nM.
Still for that read-out and setting: to `Cc1cccn2c(C(C)(C)NC(=O)C3CNCCN3Cc3ccccn3)ncc12` (racemic) [SC-003, rac-N-(2-(8-methylimidazo[1,5-a]pyridin-3-yl)propan-2-yl)-1-(pyridin-2-ylmethyl)piperazine-2-carboxamide] belongs 3.3 nM; to `Cc1cccn2c(C(C)(C)NC(=O)C3CNCCN3Cc3cccnn3)ncc12` (racemic) [SC-004, rac-N-(2-(8-methylimidazo[1,5-a]pyridin-3-yl)propan-2-yl)-1-(pyridazin-3-ylmethyl)piperazine-2-carboxamide], 7.4 nM.
On the same count and under the same terms, to `Cc1cccn2c(C(C)(C)NC(=O)C3CNCCN3Cc3cncnc3)ncc12` (racemic) [SC-005, rac-N-(2-(8-methylimidazo[1,5-a]pyridin-3-yl)propan-2-yl)-1-(pyrimidin-5-ylmethyl)piperazine-2-carboxamide] belongs 2.3 nM; to `Cc1cccn2c(C(C)(C)NC(=O)C3CNCCN3Cc3ccn(C)n3)ncc12` (racemic) [SC-006, rac-1-((1-methyl-1H-pyrazol-3-yl)methyl)-N-(2-(8-methylimidazo[1,5-a]pyridin-3-yl)propan-2-yl)piperazine-2-carboxamide], 3.7 nM.
Same read-out and setting: the value for `Cc1cccn2c(C(C)(C)NC(=O)[C@@H]3CNCCN3Cc3cnccn3)ncc12` (racemic) [SC-007, rac-N-(2-(8-methylimidazo[1,5-a]pyridin-3-yl)propan-2-yl)-1-(pyrazin-2-ylmethyl)piperazine-2-carboxamide] was 2.2 nM.
Turning to `Cc1cccn2c(C(C)(C)NC(=O)C3CNCCN3Cc3ccncn3)ncc12` (racemic) [SC-008, rac-N-(2-(8-methylimidazo[1,5-a]pyridin-3-yl)propan-2-yl)-1-(pyrimidin-4-ylmethyl)piperazine-2-carboxamide], the EC50 was 2.9 nM.
`CC(=O)N1CCNCC1C(=O)NC(C)(C)c1ncc2c(C)cccn12` (racemic) [SC-009, rac-1-acetyl-N-(2-(8-methylimidazo[1,5-a]pyridin-3-yl)propan-2-yl)piperazine-2-carboxamide]: the EC50 was found to be 3400 nM.
With `Cc1cccn2c(C(C)(C)NC(=O)C3CNCCN3C(=O)c3cnn(C)c3)ncc12` (racemic) [SC-010, rac-1-(1-methyl-1H-pyrazole-4-carbonyl)-N-(2-(8-methylimidazo[1,5-a]pyridin-3-yl)propan-2-yl)piperazine-2-carboxamide], the EC50 worked out at 3500 nM.
On the same count and under the same terms, to `Cc1cccn2c(C(C)(C)NC(=O)[C@@H]3CNCCN3C(=O)C3CC(F)(F)C3)ncc12` (racemic) [SC-011, rac-1-(3,3-difluorocyclobutane-1-carbonyl)-N-(2-(8-methylimidazo[1,5-a]pyridin-3-yl)propan-2-yl)piperazine-2-carboxamide] belongs 1300 nM.
Same read-out and setting: the value for `Cc1cccn2c(C(C)(C)NC(=O)C3CNCCN3C(=O)C3CC3)ncc12` (racemic) [SC-012, rac-1-(cyclopropanecarbonyl)-N-(2-(8-methylimidazo[1,5-a]pyridin-3-yl)propan-2-yl)piperazine-2-carboxamide] was 6600 nM; that for `Cc1cccn2c(C(C)(C)NC(=O)C3CNCCN3C(=O)C3COC3)ncc12` (racemic) [SC-013, rac-N-(2-(8-methylimidazo[1,5-a]pyridin-3-yl)propan-2-yl)-1-(oxetane-3-carbonyl)piperazine-2-carboxamide] was 350 nM; that for `Cc1cccn2c(C(C)(C)NC(=O)C3CNCCN3CC3COC3)ncc12` (racemic) [SC-014, rac-N-(2-(8-methylimidazo[1,5-a]pyridin-3-yl)propan-2-yl)-1-(oxetan-3-ylmethyl)piperazine-2-carboxamide] was 3.1 nM.
With `Cc1cccn2c(C(C)(C)NC(=O)C3CNCCN3c3ccccc3)ncc12` (racemic) [SC-093, rac-N-(2-(8-methylimidazo[1,5-a]pyridin-3-yl)propan-2-yl)-1-phenylpiperazine-2-carboxamide], the EC50 is 0.86 nM.
The same measure, in the same setting: the value for `Cc1cccn2c(C(C)(C)NC(=O)[C@@H]3CNCCN3)ncc12` [SC-015, (S)-N-(2-(8-methylimidazo[1,5-a]pyridin-3-yl)propan-2-yl)piperazine-2-carboxamide] was 9.5 nM.
On the same count and under the same terms, the value for `Cc1cccn2c(C(C)(C)NC(=O)[C@@H]3CNCCN3C)ncc12` [SC-016, (S)-1-methyl-N-(2-(8-methylimidazo[1,5-a]pyridin-3-yl)propan-2-yl)piperazine-2-carboxamide] was 0.44 nM; that for `Cc1cccn2c(C(C)(C)NC(=O)[C@@H]3CNCCN3CC(F)(F)F)ncc12` [SC-017, (S)-N-(2-(8-methylimidazo[1,5-a]pyridin-3-yl)propan-2-yl)-1-(2,2,2-trifluoroethyl)piperazine-2-carboxamide] was 0.2 nM; that for `Cc1cccn2c(C(C)(C)NC(=O)[C@@H]3CNCCN3CC(C)(C)F)ncc12` [SC-018, (S)-1-(2-fluoro-2-methylpropyl)-N-(2-(8-methylimidazo[1,5-a]pyridin-3-yl)propan-2-yl)piperazine-2-carboxamide] was 1.2 nM.
On the same count and under the same terms, to `Cc1cccn2c(C(C)(C)NC(=O)[C@@H]3CNCCN3CC(C)(F)F)ncc12` [SC-019, (S)-1-(2,2-difluoropropyl)-N-(2-(8-methylimidazo[1,5-a]pyridin-3-yl)propan-2-yl)piperazine-2-carboxamide] belongs 0.58 nM; to `Cc1cccn2c(C(C)(C)NC(=O)[C@@H]3CNCCN3CC3(C(F)(F)F)CC3)ncc12` [SC-020, (S)-N-(2-(8-methylimidazo[1,5-a]pyridin-3-yl)propan-2-yl)-1-((1-(trifluoromethyl)cyclopropyl)methyl)piperazine-2-carboxamide], 0.27 nM; to `Cc1cccn2c(C(C)(C)NC(=O)[C@@H]3CNCCN3C3CC(F)(F)C3)ncc12` [SC-021, (S)-1-(3,3-difluorocyclobutyl)-N-(2-(8-methylimidazo[1,5-a]pyridin-3-yl)propan-2-yl)piperazine-2-carboxamide], 3.1 nM.
As for `Cc1cccn2c(C(C)(C)NC(=O)[C@@H]3CNCCN3Cc3ccnc(C4CC4)c3)ncc12` [SC-022, (S)-1-((2-cyclopropylpyridin-4-yl)methyl)-N-(2-(8-methylimidazo[1,5-a]pyridin-3-yl)propan-2-yl)piperazine-2-carboxamide], the EC50 is 0.09 nM.
The same measure, in the same setting: the value for `Cc1cccn2c(C(C)(C)NC(=O)[C@@H]3CNCCN3CC(C)(C)O)ncc12` [SC-023, (S)-1-(2-hydroxy-2-methylpropyl)-N-(2-(8-methylimidazo[1,5-a]pyridin-3-yl)propan-2-yl)piperazine-2-carboxamide] was 9 nM; that for `Cc1cccn2c(C(C)(C)NC(=O)[C@@H]3CNCCN3CC3(C)CCC(F)(F)CC3)ncc12` [SC-024, (S)-1-((4,4-difluoro-1-methylcyclohexyl)methyl)-N-(2-(8-methylimidazo[1,5-a]pyridin-3-yl)propan-2-yl)piperazine-2-carboxamide] was 0.46 nM; that for `Cc1cccn2c(C(C)(C)NC(=O)[C@@H]3CNCCN3Cc3cccc(C(F)(F)F)c3)ncc12` [SC-025, (S)-N-(2-(8-methylimidazo[1,5-a]pyridin-3-yl)propan-2-yl)-1-(3-(trifluoromethyl)benzyl)piperazine-2-carboxamide] was 0.05 nM.
With `Cc1cccn2c(C(C)(C)NC(=O)[C@@H]3CNCCN3Cc3ccccc3F)ncc12` [SC-026, (S)-1-(2-fluorobenzyl)-N-(2-(8-methylimidazo[1,5-a]pyridin-3-yl)propan-2-yl)piperazine-2-carboxamide], the EC50 is 0.12 nM.
As to `Cc1cccn2c(C(C)(C)NC(=O)[C@@H]3CNCCN3Cc3ccc(F)cc3)ncc12` [SC-027, (S)-1-(4-fluorobenzyl)-N-(2-(8-methylimidazo[1,5-a]pyridin-3-yl)propan-2-yl)piperazine-2-carboxamide], the EC50 is 0.08 nM.
On the same count and under the same terms, to `Cc1cccn2c(C(C)(C)NC(=O)[C@@H]3CNCCN3Cc3ccc(C(F)(F)F)cc3)ncc12` [SC-028, (S)-N-(2-(8-methylimidazo[1,5-a]pyridin-3-yl)propan-2-yl)-1-(4-(trifluoromethyl)benzyl)piperazine-2-carboxamide] belongs 0.17 nM.

The same assay, now with this note: morpholinyl matched molecular pairs (from WO 2016 075240); same cAMP assay conditions; read-out: hSSTR4 EC50 nM (Comparative Example).
In the case of `CC(C)(NC(=O)[C@@H]1CNCCO1)c1nnc2c(Cl)cccn12`, the EC50 is > 10000 nM.

What is called EC50 is the concentration giving half of the maximal effect.
